Molecules are shown by their SMILES.

The target in one assay is T1, Chk1 (Homo sapiens, UniProt O14757).
T1 construct: purchased Upstate Biotechnology
T1 sequence (O14757 1-476): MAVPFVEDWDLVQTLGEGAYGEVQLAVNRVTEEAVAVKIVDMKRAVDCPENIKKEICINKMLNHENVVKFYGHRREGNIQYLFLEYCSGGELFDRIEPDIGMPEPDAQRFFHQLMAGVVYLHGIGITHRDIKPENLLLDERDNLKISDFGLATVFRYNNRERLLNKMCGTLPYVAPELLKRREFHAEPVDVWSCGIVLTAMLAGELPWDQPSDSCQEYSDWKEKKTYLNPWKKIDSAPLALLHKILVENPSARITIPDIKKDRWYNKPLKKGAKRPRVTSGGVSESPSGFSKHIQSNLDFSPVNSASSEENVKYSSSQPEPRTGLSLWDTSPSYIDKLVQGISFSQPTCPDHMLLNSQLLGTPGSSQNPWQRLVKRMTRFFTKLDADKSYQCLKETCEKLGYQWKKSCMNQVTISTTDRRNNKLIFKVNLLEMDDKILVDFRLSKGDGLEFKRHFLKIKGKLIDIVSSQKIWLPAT
Put plainly: Chk1 kinase assay: incorporation of γ-33P ATP into immobilized myelin basic protein. Format: biochemical. The following applies: Table 11, Chk1 only; class symbols A-D; read-out: Chk1 IC50. In short, it runs like this: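 MBP coated on plates (20 μg/ml) was phosphorylated by Chk1 (10 nM) or Chk2 (20 nM) with γ-33P ATP plus 10 μM (Chk1) or 30 μM (Chk2) unlabeled ATP, 1 h at room temperature, 1% DMSO. Bound radioactivity was counted by scintillation after washing; IC50 or Ki derived from fitted rate data.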
The IC50 is the concentration needed to halve the response being measured. For the compound `Nc1ncc(-c2cccc(CNC(=O)Nc3ccc(C(F)(F)F)cc3)c2)nc1C(=O)N[C@H]1CCCNC1` [Example 931, 3-amino-N-[(3S)-piperidin-3-yl]-6-(3-{[({[4-(trifluoromethyl)phenyl]amino}carbonyl)amino]methyl}phenyl)pyrazine-2-carboxamide], the IC50 was below 50 nM.
Still for that read-out and setting: the same measure for `CN(C)c1ccc(C(=O)NCc2cccc(-c3cnc(N)c(C(=O)N[C@H]4CCCNC4)n3)c2)cc1` [Example 903, 3-amino-6-{3-[({[4-(dimethylamino)phenyl]carbonyl}amino)methyl]phenyl}-N-[(3S)-piperidin-3-yl]pyrazine-2-carboxamide]: below 50 nM; for `Nc1ncc(-c2cccc(C(=O)NCc3c(F)cccc3Cl)c2)nc1-c1nc([C@H]2CCCNC2)n[nH]1` [Example 828, 3-(5-amino-6-{3-[(3S)-piperidin-3-yl]-1H-1,2,4-triazol-5-yl}pyrazin-2-yl)-N-[(2-chloro-6-fluorophenyl)methyl]benzamide]: 50 to 1000 nM.
On the same count and under the same terms, the same measure for `CC(C)(C)OC(=O)N1CC[C@H](NC(=O)c2nc(-c3cccc(S(=O)(=O)N[C@@H]4CCc5ccccc54)c3)cnc2N)C1` [Example 810, 1,1-dimethylethyl (3S)-3-({[3-amino-6-(3-{[(1R)-2,3-dihydro-1H-inden-1-ylamino]sulfonyl}phenyl)pyrazin-2-yl]carbonyl}amino)pyrrolidine-1-carboxylate]: at least 10000 nM.
Consider `Nc1ncc(-c2cccc(C(=O)NCc3ccc(OC(F)(F)F)cc3)c2)nc1C(=O)N[C@H]1CCCNC1` [Example 843, 3-amino-N-[(3S)-piperidin-3-yl]-6-(3-{[({4-[(trifluoromethyl)oxy]phenyl}methyl)amino]carbonyl}phenyl)pyrazine-2-carboxamide], for which the IC50 was below 50 nM.
On the same count and under the same terms, the same measure for `Nc1ncc(-c2cccc(C(=O)NCc3cc(Cl)ccc3Cl)c2)nc1C(=O)N[C@H]1CCCNC1` [Example 1015, 3-amino-6-[3-({[(2,5-dichlorophenyl)methyl]amino}carbonyl)phenyl]-N-[(3S)-piperidin-3-yl]pyrazine-2-carboxamide]: below 50 nM.
As for `Nc1ncc(-c2cccc(C(=O)NCc3ccc4c(c3)OCCO4)c2)nc1C(=O)N[C@H]1CCCCNC1` [Example 1020, 3-amino-N-[(3S)-azepan-3-yl]-6-(3-{[(2,3-dihydro-1,4-benzodioxin-6-ylmethyl)amino]carbonyl}phenyl)pyrazine-2-carboxamide], the IC50 was below 50 nM.
Still for that read-out and setting: the same measure for `Cc1ccc(Cl)cc1CNC(=O)c1cccc(-c2cnc(N)c(C(=O)N[C@H]3CCCNC3)n2)c1` [Example 993, 3-amino-6-[3-({[(5-chloro-2-methylphenyl)methyl]amino}carbonyl)phenyl]-N-[(3S)-piperidin-3-yl]pyrazine-2-carboxamide]: below 50 nM.
Still for that read-out and setting: under `CC(C)(C)OC(=O)N1CC[C@H](NC(=O)c2nc(-c3cccc(C(=O)NCc4ccc(Cl)c(Cl)c4)c3)cnc2N)C1` [Example 823, 1,1-dimethylethyl (3S)-3-[({3-amino-6-[3-({[(3,4-dichlorophenyl)methyl]amino}carbonyl)phenyl]pyrazin-2-yl}carbonyl)amino]pyrrolidine-1-carboxylate] stands 1000 to 10000 nM.

The assay is the same for the next values; noted with them: Table 11; Chk1 only; read-out: Chk1 IC50.
As to `Nc1ncc(-c2cccc(C(=O)N[C@H]3CCc4ccccc43)c2)nc1C(=O)NC1CCCNC1` (stereo partly drawn) [Example 729, 3-amino-6-(3-{[(1S)-2,3-dihydro-1H-inden-1-ylamino]carbonyl}phenyl)-N-piperidin-3-ylpyrazine-2-carboxamide], the half-inhibitory concentration (IC50) is below 50 nM.
Consider `CN(C)c1ccc(C(=O)NCCCNC(=O)c2nc(-c3cccc(C(=O)NCc4ccccc4)c3)cnc2N)cc1` [Example 684, 3-amino-N-[3-({[4-(dimethylamino)phenyl]carbonyl}amino)propyl]-6-(3-{[(phenylmethyl)amino]carbonyl}phenyl)pyrazine-2-carboxamide], for which the IC50 was at least 10000 nM.
The same measure, in the same setting: under `Nc1ncc(-c2cccc(CN[C@H]3CCc4ccccc43)c2)nc1C(=O)NCCCN1CCCC1` [Example 598, 3-amino-6-(3-{[(1S)-2,3-dihydro-1H-inden-1-ylamino]methyl}phenyl)-N-(3-pyrrolidin-1-ylpropyl)pyrazine-2-carboxamide] stands 1000 to 10000 nM; under `CN1CCCC(c2n[nH]c(-c3nc(-c4cccc(CO)c4)cnc3N)n2)C1` (centres unmarked) [Example 736, (3-{5-amino-6-[3-(1-methylpiperidin-3-yl)-1H-1,2,4-triazol-5-yl]pyrazin-2-yl}phenyl)methanol], 1000 to 10000 nM.
The same measure, in the same setting: under `Cn1nc(-c2nc(-c3cccc(C(=O)NCc4ccccc4)c3)cnc2N)nc1C1CCCCN1` (centres unmarked) [Example 701, 3-[5-amino-6-(1-methyl-5-piperidin-2-yl-1H-1,2,4-triazol-3-yl)pyrazin-2-yl]-N-(phenylmethyl)benzamide] stands at least 10000 nM.
The same measure, in the same setting: the same measure for `Nc1ncc(-c2cccc(CN[C@H]3CCc4ccccc43)c2)nc1-c1nc(-c2cccnc2)n[nH]1` [Example 596, 5-(3-{[(1S)-2,3-dihydro-1H-inden-1-ylamino]methyl}phenyl)-3-(3-pyridin-3-yl-1H-1,2,4-triazol-5-yl)pyrazin-2-amine]: below 50 nM; for `C/C(=N\N1CCOCC1)c1nc(-c2cccc(C(=O)NCc3ccccc3)c2)cnc1N` [Example 626, 3-{5-amino-6-[(1E)-N-morpholin-4-ylethanimidoyl]pyrazin-2-yl}-N-(phenylmethyl)benzamide]: 1000 to 10000 nM.
With `Nc1ncc(-c2cccc(CO)c2)nc1-c1nc(-c2cccnc2)n[nH]1` [Example 580, {3-[5-amino-6-(3-pyridin-3-yl-1H-1,2,4-triazol-5-yl)pyrazin-2-yl]phenyl}methanol], the IC50 was 50 to 1000 nM.
On the same count and under the same terms, the same measure for `Nc1ncc(-c2cccc(C(=O)NCc3ccccc3)c2)nc1/C=N/NCCO` [Example 677, 3-(5-amino-6-{(E)-[(2-hydroxyethyl)hydrazono]methyl}pyrazin-2-yl)-N-(phenylmethyl)benzamide]: 1000 to 10000 nM; for `CNNC(=O)c1nc(-c2cccc(CN[C@H]3CCc4ccccc43)c2)cnc1N` [Example 553, 3-amino-6-(3-{[(1S)-2,3-dihydro-1H-inden-1-ylamino]methyl}phenyl)-N′-methylpyrazine-2-carbohydrazide]: 50 to 1000 nM.

The same assay, now with this note: read-out: Chk1 IC50.
For the compound `CNC(=O)c1nc(-c2cccc(C(=O)NCc3c(C)cccc3Cl)c2)cnc1N` [Example 250, 3-amino-6-[3-({[(2-chloro-6-methylphenyl)methyl]amino}carbonyl)phenyl]-N-methylpyrazine-2-carboxamide], the IC50 was 50 to 1000 nM.
On the same count and under the same terms, under `CNC(=O)c1nc(-c2cccc(C(=O)NCc3ccc(-n4cccn4)cc3)c2)cnc1N` [Example 379, 3-amino-N-methyl-6-{3-[({[4-(1H-pyrazol-1-yl)phenyl]methyl}amino)carbonyl]phenyl}pyrazine-2-carboxamide] stands 50 to 1000 nM; under `CNC(=O)c1nc(-c2cccc(C(=O)N[C@@H]3C[C@H]3c3ccccc3)c2)cnc1N` [Example 148, 3-amino-N-methyl-6-[3-({[(1R,2S)-2-phenylcyclopropyl]amino}carbonyl)phenyl]pyrazine-2-carboxamide], 50 to 1000 nM.
On the same count and under the same terms, under `CNC(=O)c1nc(-c2cccc(C(=O)NCc3ccc(C(F)(F)F)cc3)c2)cnc1N` [Example 102, 3-amino-N-methyl-6-{3-[({[4-(trifluoromethyl)phenyl]methyl}amino)carbonyl]phenyl}pyrazine-2-carboxamide] stands 50 to 1000 nM; under `CNC(=O)c1nc(-c2cccc(OCCN(C)Cc3ccccc3)c2)cnc1N` [Example 183, 3-amino-N-methyl-6-[3-({2-[methyl(phenylmethyl)amino]ethyl}oxy)phenyl]pyrazine-2-carboxamide], 50 to 1000 nM; under `CNC(=O)c1nc(-c2cccc(CNC(=O)C3CCN(c4ncc(C(F)(F)F)cn4)CC3)c2)cnc1N` [Example 354, 3-amino-N-methyl-6-(3-{[({1-[5-(trifluoromethyl)pyrimidin-2-yl]piperidin-4-yl}carbonyl)amino]methyl}phenyl)pyrazine-2-carboxamide], 50 to 1000 nM.
As for `CNC(=O)c1nc(-c2cccc(C(=O)N3CCN(Cc4ccccc4)CC3)c2)cnc1N` [Example 117, 3-amino-N-methyl-6-(3-{[4-(phenylmethyl)piperazin-1-yl]carbonyl}phenyl)pyrazine-2-carboxamide], the IC50 lay within 1000 to 10000 nM.
Still for that read-out and setting: the same measure for `CNC(=O)c1nc(-c2cccc(-c3nc4ccccc4[nH]3)c2)cnc1N` [Example 407, 3-amino-6-[3-(1H-benzimidazol-2-yl)phenyl]-N-methylpyrazine-2-carboxamide]: 50 to 1000 nM.
In the case of `CNC(=O)c1nc(-c2cccc(NC(=O)NCc3ccccc3)c2)cnc1N` [Example 168, 3-amino-N-methyl-6-[3-({[(phenylmethyl)amino]carbonyl}amino)phenyl]pyrazine-2-carboxamide], the IC50 lay within 50 to 1000 nM.
On the same count and under the same terms, under `CNC(=O)c1nc(-c2cccc(C(=O)Nc3ccccc3)c2)cnc1N` [Example 142, 3-amino-N-methyl-6-{3-[(phenylamino)carbonyl]phenyl}pyrazine-2-carboxamide] stands 1000 to 10000 nM.

These data come from patent US7704995B2 (Exelixis, Inc., priority 2003, dated 2010).
